Data from patent US10093630B2, “Pyrazole compounds and methods of making and using same” (ABIDE THERAPEUTICS, INC., priority 2014, dated 2018).

Legend:
Assay in all cases: In vitro competitive activity-based protein profiling (gel-based, FP-Rh or HT-01 probe)
Format in all cases: biochemical
MAGL = target: T1, MAGL (Mus musculus, UniProt O35678); conditions: for inhibition at 10 µM: 10 μM inhibitor; for inhibition at 1 µM: 1 μM inhibitor; for IC50: mouse brain membrane fraction or cell lysates, 30 min preincubation at 37° C., read-out: Mouse (IC50 value, nM) MAGL
T1 construct: Proteomes (mouse brain membrane fraction or cell lysates); from tissue; host or cells: mouse brain membrane fraction (or cell lysates, not specified)
T1 sequence (O35678 1-303): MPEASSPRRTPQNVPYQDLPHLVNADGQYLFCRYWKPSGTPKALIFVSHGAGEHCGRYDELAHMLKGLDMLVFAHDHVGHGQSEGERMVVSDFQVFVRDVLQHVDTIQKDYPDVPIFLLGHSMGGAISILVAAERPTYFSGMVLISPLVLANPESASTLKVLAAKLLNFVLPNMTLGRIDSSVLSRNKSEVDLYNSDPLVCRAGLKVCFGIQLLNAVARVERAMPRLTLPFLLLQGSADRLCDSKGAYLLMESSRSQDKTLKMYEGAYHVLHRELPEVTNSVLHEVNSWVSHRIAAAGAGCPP
Description: (§1) In Vitro Competitive Activity-Based Protein Profiling.
(§2) Proteomes (mouse brain membrane fraction or cell lysates) (50 μL, 1.0 mg/mL total protein concentration) were preincubated with varying concentrations of inhibitors at 37° C. After 30 min, FP-Rh or HT-01 ([…], 50 μM in DMSO) was added and the mixture was incubated for another 30 min at 37° C. Reactions were quenched with SDS loading buffer (15 μL—4×) and run on SDS-PAGE. Following gel imaging, serine hydrolase activity was determined by measuring fluorescent intensity of gel bands corresponding to MAGL, ABHD6, FAAH, and PLA2G7 using ImageJ 1.43u software.

ABHD6 = target: T2, ABHD6 (Mus musculus, UniProt Q8R2Y0); conditions: for inhibition at 10 µM: 10 μM inhibitor, read-out: % Inhibition at 10 μM, C = ABHD6; for inhibition at 1 µM: 1 μM inhibitor, read-out: % Inhibition at 1 μM, C = ABHD6; for IC50: mouse brain membrane fraction or cell lysates, 30 min preincubation at 37° C., read-out: Mouse (IC50 value, nM) ABHD6
T2 construct: Proteomes (mouse brain membrane fraction or cell lysates); from tissue; host or cells: mouse brain membrane fraction (or cell lysates, not specified)
T2 sequence (Q8R2Y0 1-336): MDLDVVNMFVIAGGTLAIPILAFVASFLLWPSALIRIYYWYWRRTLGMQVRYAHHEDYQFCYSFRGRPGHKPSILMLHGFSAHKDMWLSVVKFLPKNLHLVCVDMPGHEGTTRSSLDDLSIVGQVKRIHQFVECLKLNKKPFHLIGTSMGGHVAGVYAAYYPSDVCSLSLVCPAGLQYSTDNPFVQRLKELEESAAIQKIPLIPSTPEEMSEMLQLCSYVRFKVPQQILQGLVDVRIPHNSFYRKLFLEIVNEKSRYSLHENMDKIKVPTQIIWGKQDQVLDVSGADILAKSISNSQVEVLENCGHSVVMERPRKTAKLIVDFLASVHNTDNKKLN
Description: as §1, §2

FAAH = target: T3, FAAH (Mus musculus, UniProt O08914); conditions: for inhibition at 10 µM: 10 μM inhibitor, read-out: % Inhibition at 10 μM, B = FAAH; for inhibition at 1 µM: 1 μM inhibitor, read-out: % Inhibition at 1 μM, B = FAAH; for IC50: mouse brain membrane fraction or cell lysates, 30 min preincubation at 37° C., read-out: Mouse (IC50 value, nM) FAAH
T3 construct: Proteomes (mouse brain membrane fraction or cell lysates); from tissue; host or cells: mouse brain membrane fraction (or cell lysates, not specified)
T3 sequence (O08914 1-579): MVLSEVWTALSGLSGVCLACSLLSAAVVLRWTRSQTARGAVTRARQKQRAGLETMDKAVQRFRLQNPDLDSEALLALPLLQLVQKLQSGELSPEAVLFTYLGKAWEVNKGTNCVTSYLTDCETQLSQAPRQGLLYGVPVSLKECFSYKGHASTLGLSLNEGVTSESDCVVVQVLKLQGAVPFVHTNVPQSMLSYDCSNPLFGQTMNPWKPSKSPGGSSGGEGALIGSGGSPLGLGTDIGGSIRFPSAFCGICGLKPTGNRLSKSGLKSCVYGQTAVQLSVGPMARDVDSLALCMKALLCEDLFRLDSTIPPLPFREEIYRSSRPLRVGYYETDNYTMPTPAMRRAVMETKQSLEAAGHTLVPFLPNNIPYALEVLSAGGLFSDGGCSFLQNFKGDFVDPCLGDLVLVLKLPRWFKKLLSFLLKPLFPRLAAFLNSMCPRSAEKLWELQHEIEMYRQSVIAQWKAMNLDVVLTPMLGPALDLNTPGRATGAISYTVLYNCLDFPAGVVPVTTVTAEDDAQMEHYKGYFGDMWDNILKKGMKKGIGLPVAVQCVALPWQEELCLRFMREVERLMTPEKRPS
Description: as §1, §2

Row | SMILES | inhibition at 10 µM (MAGL) | inhibition at 10 µM (ABHD6) | inhibition at 10 µM (FAAH) | inhibition at 1 µM (MAGL) | IC50 (MAGL) | inhibition at 1 µM (ABHD6) | IC50 (ABHD6) | inhibition at 1 µM (FAAH) | IC50 (FAAH)
1 | Cc1cnn(C(=O)N(C)CCN(C)S(C)(=O)=O)c1 [Example 196, N,4-Dimethyl-N-(2-(N-methylmethylsulfonamido)ethyl)-1H-pyrazole-1-carboxamide] | < 25% | < 25% | < 25% |  |  |  |  |  | 
2 | O=C(N1CCOCC1)n1cc(Cl)cn1 [Example 97, (4-Chloro-1H-pyrazol-1-yl)(morpholino)methanone] | < 25% | < 25% | > 75% |  |  |  |  |  | 
3 | O=C(N1CCN(C(c2ccc(Cl)cc2)c2ccc(Cl)cc2)CC1)n1cc(F)cn1 [Example 121, (4-(Bis(4-chlorophenyl)methyl)piperazin-1-yl)(4-fluoro-1H-pyrazol-1-yl)methanone] | > 75% | > 75% | > 75% | > 75% | < 100 nM | < 25% | > 1000 nM | < 25% | > 1000 nM
4 | Cc1ccc(-c2cnn(C(=O)N3CCCC3)c2)cc1 [Example 104, Pyrrolidin-1-yl(4-(p-tolyl)-1H-pyrazol-1-yl)methanone] | < 25% | > 75% | > 75% |  |  |  |  |  | 
5 | O=C(NC1CC1)c1cnn(C(=O)N2CCN(C(c3ccc(Cl)cc3)c3ccc(Cl)cc3)CC2)c1 [Example 49, 1-(4-(Bis(4-chlorophenyl)methyl)piperazine-1-carbonyl)-N-cyclopropyl-1H-pyrazole-4-carboxamide] |  |  |  |  | 100 to 1000 nM |  | 100 to 1000 nM |  | > 1000 nM
6 | O=C(N1CCN(Cc2ccc(Cl)cc2N2CCOCC2)CC1)n1cc(Cl)cn1 [Example 47, (4-Chloro-1H-pyrazol-1-yl)(4-(4-chloro-2-morpholinobenzyl)piperazin-1-yl)methanone] |  |  |  |  | < 100 nM |  | < 100 nM |  | 100 to 1000 nM
7 | Cc1cnn(C(=O)N2CCN(Cc3c(N4CCCC4)cccc3C(F)(F)F)CC2)c1 [Example 111, (4-Methyl-1H-pyrazol-1-yl)(4-(2-(pyrrolidin-1-yl)-6-(trifluoromethyl)benzyl)piperazin-1-yl)methanone] | > 75% | > 75% | 25 to 75% |  | 100 to 1000 nM |  | 100 to 1000 nM |  | > 1000 nM
8 | O=C(N1CCN(Cc2ccc(Cl)cc2N2CCC3(CCOCC3)C2)CC1)n1cc(Cl)cn1 [Example 102, (4-Chloro-1H-pyrazol-1-yl)(4-(4-chloro-2-(8-oxa-2-azaspiro[4.5]decan-2-yl)benzyl)piperazin-1-yl)methanone] |  |  |  | > 75% | < 100 nM | > 75% | < 100 nM | < 25% | > 1000 nM
9 | O=C(N1CCN(Cc2c(N3CCCC3)cccc2C(F)(F)F)CC1)n1cc(-c2ccccc2)cn1 [Example 109, (4-Phenyl-1H-pyrazol-1-yl)(4-(2-(pyrrolidin-1-yl)-6-(trifluoromethyl)benzyl)piperazin-1-yl)methanone] | 25 to 75% | > 75% | > 75% |  |  |  |  |  | 
10 | O=C(N1CCCC1)n1cc(Cl)cn1 [Example 98, (4-Chloro-1H-pyrazol-1-yl)(pyrrolidin-1-yl)methanone] | 25 to 75% | < 25% | > 75% |  |  |  |  |  | 
11 | Cc1cnn(C(=O)NCc2ccc3ccccc3c2)c1 [Example 44, 4-Methyl-N-(naphthalen-2-ylmethyl)-1H-pyrazole-1-carboxamide] | < 25% | < 25% | < 25% |  |  |  |  |  | 
12 | O=C(N1CCN(C(c2ccc(Cl)cc2)c2ccc(Cl)cc2)CC1)n1cc(-c2ccccc2)cn1 [Example 119, (4-(Bis(4-chlorophenyl)methyl)piperazin-1-yl)(4-phenyl-1H-pyrazol-1-yl)methanone] | > 75% | > 75% | < 25% | 25 to 75% |  | < 25% |  | < 25% | 

Second part, the molecule after the results:

Row | inhibition at 10 µM (MAGL) | inhibition at 10 µM (ABHD6) | inhibition at 10 µM (FAAH) | inhibition at 1 µM (MAGL) | IC50 (MAGL) | inhibition at 1 µM (ABHD6) | IC50 (ABHD6) | inhibition at 1 µM (FAAH) | IC50 (FAAH) | SMILES
13 |  |  |  | > 75% | < 100 nM | > 75% | 100 to 1000 nM | > 75% | 100 to 1000 nM | O=C(N1CCN(Cc2ccc(C(F)(F)F)cc2N2CCCC2)CC1)n1cc(F)cn1 [Example 126, (4-Fluoro-1H-pyrazol-1-yl)(4-(2-(pyrrolidin-1-yl)-4-(trifluoromethyl)benzyl)piperazin-1-yl)methanone]
14 |  |  |  | > 75% |  | > 75% |  | > 75% |  | O=C(N1CCN(Cc2c(N3CCCC3)cccc2C(F)(F)F)CC1)n1cc(Cl)cn1 [Example 99, (4-Chloro-1H-pyrazol-1-yl)(4-(2-(pyrrolidin-1-yl)-6-(trifluoromethyl)benzyl)piperazin-1-yl)methanone]
15 | > 75% | > 75% | > 75% | > 75% | < 100 nM | > 75% | 100 to 1000 nM | 25 to 75% | > 1000 nM | O=C(N1CCN(Cc2c(N3CCCC3)cccc2C(F)(F)F)CC1)n1cc(F)cn1 [Example 113, (4-Fluoro-1H-pyrazol-1-yl)(4-(2-(pyrrolidin-1-yl)-6-(trifluoromethyl)benzyl)piperazin-1-yl)methanone]
16 |  |  |  |  | < 100 nM |  | > 1000 nM |  | 100 to 1000 nM | Cc1cc(-c2ccccc2)ccc1CN1CCN(C(=O)n2cccn2)CC1 [Example 94, (4-((3-Methyl-[1,1′-biphenyl]-4-yl)methyl)piperazin-1-yl)(1H-pyrazol-1-yl)methanone]
17 | > 75% | > 75% | < 25% | > 75% | < 100 nM | < 25% | > 1000 nM | < 25% | > 1000 nM | Cc1cnn(C(=O)N2CCN(C(c3ccc(Cl)cc3)c3ccc(Cl)cc3)CC2)c1 [Example 117, (4-(Bis(4-chlorophenyl)methyl)piperazin-1-yl)(4-methyl-1H-pyrazol-1-yl)methanone]
18 | > 75% | > 75% | 25 to 75% | > 75% | 100 to 1000 nM | > 75% | 100 to 1000 nM | < 25% | > 1000 nM | O=C(c1cnn(C(=O)N2CCN(C(c3ccc(Cl)cc3)c3ccc(Cl)cc3)CC2)c1)N1CCCCC1 [Example 66, (4-(Bis(4-chlorophenyl)methyl)piperazin-1-yl)(4-(piperidine-1-carbonyl)-1H-pyrazol-1-yl)methanone]
19 | > 75% | > 75% | > 75% | > 75% | < 100 nM | > 75% | 100 to 1000 nM | < 25% | > 1000 nM | O=C(N1CCN(C(c2ccc(Cl)cc2)c2ccc(Cl)cc2)CC1)n1cc(C(F)(F)F)cn1 [Example 118, (4-(Bis(4-chlorophenyl)methyl)piperazin-1-yl)(4-(trifluoromethyl)-1H-pyrazol-1-yl)methanone]
20 | < 25% | < 25% | < 25% |  |  |  |  |  |  | CN1CCCN(C(=O)n2cc(Cl)cn2)CC1 [Example 190, (4-Chloro-1H-pyrazol-1-yl)(4-methyl-1,4-diazepan-1-yl)methanone]
